Experimental data published in US20240132525A1, “BORON […], CO[…], METHODS AND USES THEREOF” (priority 2022, published 2024).
pIC50: −log10 of the molar value. Read-outs that look alike come from different tables or passages of the source.

Assays:
IL-31 = assay: Cytokine function assay for IL-31 in DH82 cells; assay type: cell-based, canine; details: Canis lupus familiaris
Procedure: Cytokine Function Assay Protocol for IL-31
The protocol for the cytokine function assay for IL-31 is set forth below: • 1. […] After 24 hr, wash with 37° C. pre-warmed PBS (100 uL/well). • 3. Add serum-free MEM, 90 uL per well, 2 hr, 37° C. • 4. Add 10 uL 10×IL-31 (40, 10, 2.5 ug/mL) in duplicate, 5 min, 37° C. • 5. Remove medium, add 60 uL lysis buffer per well. Agitate on a plate shaker (˜350 rpm) for 10 min at RT. • 6. […] Add 6 uL Acceptor Mix, cover with aluminum foil, quickly spin at 1000 rpm, shake at 120 rpm for 2 min, then incubate at RT for 1 hr. • 8. Add 6 uL Donor Mix, cover with aluminum foil, quickly spin at 1000 rpm, shake at 120 rpm for 2 min, then incubate at RT for 1 hr. • 9. Measure the fluorescence using EnVision™ plate reader.

JAK2 = JAK2 (Homo sapiens (Human), UniProt O60674); assay: Biochemical kinase assay (33P-ATP filter-binding), JAK2
Text: (§1) Biochemical Kinase Assay Protocol (JAK)
(§2) Reaction Procedure: • 1. […] Detected kinase activity by filter-binding method.

[1] = Dog LM (liver microsome) assay; assay type: in vitro ADME; details: Table 3a; predicted clearance as percent of liver blood flow, 1 μM, 1 mg/ml microsomal protein
Method in brief: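 Pooled Beagle liver microsomes (1 mg/ml protein), compound 1 μM, Tris pH 7.6 with 5 mM MgCl2, 37 °C, started with 1 mM NADPH; parent loss by LC-MS/MS over several time points.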

IL-4/pSTAT6 = assay: Cytokine function assay IL-4/pSTAT6 in PBMC; assay type: cell-based; details: PBMC, read-out: IC50 IL-4, Table 3a
Procedure: (§3) Cytokine Function Assay Protocols for IL-4/pSTAT6 and GM-CSF/pSTAT5
IL-4/pSTAT6: • PBMC from a healthy donor was plated onto a 96 w plate. Compound was added and incubated for 1 hour (at 37° C.). After 1 hour, cells were stimulated with IL-4 for 15 minutes. Cells were fixed and stained with anti-pSTAT6 antibody. After staining, cells were read on a Beckman-Coulter CytoFLEX.

GM-CSF/pSTAT5 = assay: Cytokine function assay GM-CSF/pSTAT5 in lysed whole blood cells; assay type: cell-based; details: Whole blood cell, read-out: IC50 GM-CSF
Procedure: as §3
GM-CSF/pSTAT5: • Whole blood from a healthy donor was lysed to remove red blood cells. Cells were plated onto a 96 well plate. Compound was added and incubated for 1 hour (at 37° C.). After 1 hour, cells were stimulated with GM-CSF for 15 minutes. Cells were fixed and stained with anti-pSTAT5 antibody. After staining, cells were read on a Beckman-Coulter CytoFLEX.

PDE4B = PDE4B (Homo sapiens (Human), UniProt Q07343); assay: PDE4B inhibition; assay type: biochemical; details: Table 3a
JAK1 = JAK1 (Homo sapiens (Human), UniProt P23458); assay: Biochemical kinase assay (33P-ATP filter-binding), JAK1
Text: as §1, §2

[2] = Pharmacokinetic profile after single oral administration in Beagle dogs; assay type: in vivo; details: male Beagle dogs, single oral dose about 1.0 mg/kg, fasted
Procedure: Summary of Pharmacokinetic (PK) profile
Three healthy male Beagle dogs were studied to determine a representative pharmacokinetic (PK) profile following a single oral administration of 1.0 mg/kg to each dog in a fasted state. Blood samples were collected at pre-dose, 0.25, 0.5, 1, 2, 4, 8, 24; 32, and 48 h post dose following oral administration (1 mg/mL in 10% Propylene glycol (PG), 45% PEG400, 7% Cremophor EL, 38% 50 mM citrate buffer pH 3.0 suspension or clear solution).

[3] = DH82, Table 3a, read-out: IC50 IL-31

PDE4B, sequence (Q07343 whole entry, species assumed): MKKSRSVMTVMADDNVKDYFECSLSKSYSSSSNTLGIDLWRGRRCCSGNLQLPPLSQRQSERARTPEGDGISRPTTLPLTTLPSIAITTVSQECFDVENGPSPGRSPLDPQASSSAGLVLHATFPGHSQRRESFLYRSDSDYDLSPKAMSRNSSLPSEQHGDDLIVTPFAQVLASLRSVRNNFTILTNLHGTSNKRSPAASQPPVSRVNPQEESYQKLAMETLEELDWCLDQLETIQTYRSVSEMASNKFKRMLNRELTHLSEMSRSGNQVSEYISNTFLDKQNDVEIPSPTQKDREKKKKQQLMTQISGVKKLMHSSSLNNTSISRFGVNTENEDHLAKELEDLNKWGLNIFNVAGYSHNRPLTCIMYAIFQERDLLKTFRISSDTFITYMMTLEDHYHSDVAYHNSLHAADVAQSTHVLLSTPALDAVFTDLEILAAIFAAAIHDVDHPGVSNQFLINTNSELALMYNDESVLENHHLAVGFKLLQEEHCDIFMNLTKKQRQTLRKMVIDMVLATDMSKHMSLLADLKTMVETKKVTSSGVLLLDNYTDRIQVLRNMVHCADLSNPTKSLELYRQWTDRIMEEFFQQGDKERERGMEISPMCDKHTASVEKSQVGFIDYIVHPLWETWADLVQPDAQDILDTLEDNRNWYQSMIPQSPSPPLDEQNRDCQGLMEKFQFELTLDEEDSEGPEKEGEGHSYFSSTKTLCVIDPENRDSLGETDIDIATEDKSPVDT
JAK2, sequence (O60674 whole entry, species assumed): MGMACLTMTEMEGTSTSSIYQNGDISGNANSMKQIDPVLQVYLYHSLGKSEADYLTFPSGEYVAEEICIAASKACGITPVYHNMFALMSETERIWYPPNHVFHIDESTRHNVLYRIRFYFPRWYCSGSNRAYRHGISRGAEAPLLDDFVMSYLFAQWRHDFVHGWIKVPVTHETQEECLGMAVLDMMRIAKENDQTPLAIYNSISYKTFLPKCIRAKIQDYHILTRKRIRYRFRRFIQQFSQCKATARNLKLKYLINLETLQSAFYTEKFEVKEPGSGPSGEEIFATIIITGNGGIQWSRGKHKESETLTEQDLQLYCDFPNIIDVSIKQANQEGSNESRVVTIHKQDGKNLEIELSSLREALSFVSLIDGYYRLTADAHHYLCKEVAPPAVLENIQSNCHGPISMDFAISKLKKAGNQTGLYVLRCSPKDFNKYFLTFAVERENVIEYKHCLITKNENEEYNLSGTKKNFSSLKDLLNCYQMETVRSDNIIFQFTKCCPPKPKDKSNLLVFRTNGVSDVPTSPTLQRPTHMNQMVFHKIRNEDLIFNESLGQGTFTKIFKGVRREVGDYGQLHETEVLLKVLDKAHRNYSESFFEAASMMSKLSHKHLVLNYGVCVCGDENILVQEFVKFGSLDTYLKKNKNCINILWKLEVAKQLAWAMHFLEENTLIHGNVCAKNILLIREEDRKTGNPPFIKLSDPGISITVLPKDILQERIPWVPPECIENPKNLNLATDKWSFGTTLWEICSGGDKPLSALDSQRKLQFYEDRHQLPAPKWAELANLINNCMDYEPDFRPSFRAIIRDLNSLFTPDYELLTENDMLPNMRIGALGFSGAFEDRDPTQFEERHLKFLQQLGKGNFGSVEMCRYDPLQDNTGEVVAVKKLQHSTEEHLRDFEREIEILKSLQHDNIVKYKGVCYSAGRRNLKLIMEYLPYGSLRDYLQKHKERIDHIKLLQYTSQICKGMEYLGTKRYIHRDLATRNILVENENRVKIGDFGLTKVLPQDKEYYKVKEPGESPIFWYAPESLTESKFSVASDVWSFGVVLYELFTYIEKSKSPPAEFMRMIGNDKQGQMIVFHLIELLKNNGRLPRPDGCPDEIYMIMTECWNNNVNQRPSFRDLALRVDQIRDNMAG
JAK1, sequence (P23458 whole entry, species assumed): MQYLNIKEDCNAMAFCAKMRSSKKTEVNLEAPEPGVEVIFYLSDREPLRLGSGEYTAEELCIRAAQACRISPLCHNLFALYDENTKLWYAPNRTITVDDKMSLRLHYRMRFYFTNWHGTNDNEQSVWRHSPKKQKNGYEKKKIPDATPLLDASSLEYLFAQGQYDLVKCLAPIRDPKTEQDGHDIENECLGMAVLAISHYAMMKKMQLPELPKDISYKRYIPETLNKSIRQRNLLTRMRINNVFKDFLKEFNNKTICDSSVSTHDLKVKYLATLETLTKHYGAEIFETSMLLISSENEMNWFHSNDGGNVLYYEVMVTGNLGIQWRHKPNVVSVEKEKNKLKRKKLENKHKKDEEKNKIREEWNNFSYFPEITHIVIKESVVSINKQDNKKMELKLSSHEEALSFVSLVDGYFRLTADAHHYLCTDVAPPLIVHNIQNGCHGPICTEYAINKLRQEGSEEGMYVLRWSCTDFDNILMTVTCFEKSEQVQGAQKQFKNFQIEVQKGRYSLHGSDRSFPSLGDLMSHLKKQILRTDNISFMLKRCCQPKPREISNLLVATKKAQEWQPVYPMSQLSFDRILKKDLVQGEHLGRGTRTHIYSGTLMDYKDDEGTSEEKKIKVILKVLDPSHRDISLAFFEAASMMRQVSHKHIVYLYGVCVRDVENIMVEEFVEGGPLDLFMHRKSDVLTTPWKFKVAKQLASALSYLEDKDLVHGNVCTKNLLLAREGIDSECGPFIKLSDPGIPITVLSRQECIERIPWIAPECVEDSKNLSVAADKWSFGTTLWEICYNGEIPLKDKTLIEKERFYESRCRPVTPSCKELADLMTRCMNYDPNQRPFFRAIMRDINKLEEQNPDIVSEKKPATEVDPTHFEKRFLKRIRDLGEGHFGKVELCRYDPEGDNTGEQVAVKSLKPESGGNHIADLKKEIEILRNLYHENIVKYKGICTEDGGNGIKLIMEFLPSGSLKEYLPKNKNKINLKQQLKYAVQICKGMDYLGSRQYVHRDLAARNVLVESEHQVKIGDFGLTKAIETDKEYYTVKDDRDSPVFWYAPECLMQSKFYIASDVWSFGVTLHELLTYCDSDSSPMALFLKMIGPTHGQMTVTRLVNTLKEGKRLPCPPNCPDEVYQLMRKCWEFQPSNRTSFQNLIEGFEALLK

| concentration at 48 h ([2]; dog, in vivo, read-out: Mean Clast) [ng/mL] | Median Tlast [2] [h] | Compound | pIC50 (IL-31; [3]) | pIC50 (JAK2; Table 3a, read-out: IC50 JAK2) | Dog LM QH [1] [%] | pIC50 (IL-4/pSTAT6) | pIC50 (GM-CSF/pSTAT5) | pIC50 (PDE4B) | pIC50 (JAK1; Table 3a, read-out: IC50 JAK1) | pIC50 (IL-31; DH82, read-out: IC50 IL-31) | pIC50 (JAK2; IC50 JAK2, Table 3a) | pIC50 (JAK1; IC50 JAK1, Table 3a) |
| --- | --- | --- | --- | --- | --- | --- | --- | --- | --- | --- | --- | --- |
|  |  | Cc1cnc(Nc2cc(F)c3c(c2)COB3O)nc1NC1COCCC1C#N (racemic) [Example 029, (trans)-3-((2-((7-fluoro-1-hydroxy-1,3-dihydrobenzo[c][1,2]oxaborol-5-yl)amino)-5-methylpyrimidin-4-yl)amino)tetrahydro-2H-pyran-4-carbonitrile] | 7.31 | 8.01 | <19.9 | 7.23 | 5.65 | 6.01 | 9.70 |  |  |  |
|  |  | Cc1cnc(Nc2cc(C)c3c(c2)COB3O)nc1N[C@@H]1CCC[C@H]1C#N (relative stereo) [Example 002, (trans)-2-((2-((1-hydroxy-7-methyl-1,3-dihydrobenzo[c][1,2]oxaborol-5-yl)amino)-5-methylpyrimidin-4-yl)amino)cyclopentane-1-carbonitrile] | 7.62 | 7.92 | <19.9 | 7.02 | 5.68 | 6.08 | 9.05 |  |  |  |
|  |  | Cc1cnc(Nc2ccc3c(c2)C(C)(C)OB3O)nc1N[C@@H]1COCC[C@H]1C#N (relative stereo) [Example 032, (trans)-3-[[2-[(1-hydroxy-3,3-dimethyl-2,1-benzoxaborol-5-yl)amino]-5-methyl-pyrimidin-4-yl]amino]tetrahydropyran-4-carbonitrile] |  | 8.48 | 42.0 | 7.18 | 6.05 | 6.12 | 9.22 | 7.29 |  |  |
|  |  | Cc1cnc(Nc2cc(Cl)c3c(c2)COB3O)nc1NC1CCCC[C@@H]1C#N (single isomer, unassigned) [Example 010a, (trans)-2-[[2-[(7-chloro-1-hydroxy-3H-2,1-benzoxaborol-5-yl)amino]-5-methyl-pyrimidin-4-yl]amino]cyclohexane-1-carbonitrile] | 7.90 | 8.40 | <19.9 | 7.42 | 6.33 |  | 9.22 |  |  |  |
|  |  | Cc1cnc(Nc2cc3c(c(C(F)(F)F)c2)B(O)OC3)nc1N[C@H]1CCCC[C@@H]1C#N (single isomer, unassigned) [Example 011a, (trans)-2-((2-((1-hydroxy-7-(trifluoromethyl)-1,3-dihydrobenzo[c][1,2]oxaborol-5-yl)amino)-5-methylpyrimidin-4-yl)amino)cyclohexane-1-carbonitrile] | 6.97 | 7.93 | <19.9 | 6.82 | 5.83 |  | 9.40 |  |  |  |
|  |  | Cc1cnc(Nc2ccc3c(c2)COB3O)nc1N[C@@H]1COCC[C@H]1C#N (single isomer, unassigned) [Example 026a, (trans)-3-((2-((1-hydroxy-1,3-dihydrobenzo[c][1,2]oxaborol-5-yl)amino)-5-methylpyrimidin-4-yl)amino)tetrahydro-2H-pyran-4-carbonitrile] | 7.67 |  | <19.9 | 7.30 | 5.37 | 6.01 |  |  | 8.80 | 9.40 |
|  |  | Cc1cnc(Nc2cc(F)c3c(c2)COB3O)nc1N[C@@H]1COCC[C@H]1C#N (single isomer, unassigned) [Example 029a, (trans)-3-[[2-[(7-fluoro-1-hydroxy-3H-2,1-benzoxaborol-5-yl)amino]-5-methyl-pyrimidin-4-yl]amino]tetrahydropyran-4-carbonitrile] | 7.70 | 8.43 | <19.9 | 7.31 | 5.93 | 6.42 | 10.70 |  |  |  |
| 7.98 | 48 | Cc1cnc(Nc2cc(Cl)c3c(c2)COB3O)nc1N[C@@H]1COCC[C@H]1C#N (single isomer, unassigned) [Example 031b, (trans)-3-((2-((7-chloro-1-hydroxy-1,3-dihydrobenzo[c][1,2]oxaborol-5-yl)amino)-5-methylpyrimidin-4-yl)amino)tetrahydro-2H-pyran-4-carbonitrile] |  |  | <19.9 |  |  |  |  |  |  |  |
|  |  | Cc1cc(Nc2ncc(Cl)c(N[C@H]3COCC[C@@H]3C#N)n2)cc2c1B(O)OC2 (single isomer, unassigned) [Example 041a, (trans)-3-[[5-chloro-2-[(1-hydroxy-7-methyl-3H-2,1-benzoxaborol-5-yl)amino]pyrimidin-4-yl]amino]tetrahydropyran-4-carbonitrile] | 7.40 |  | <19.9 | 7.33 | < 5.00 |  |  |  | 8.51 | 9.10 |
|  |  | N#C[C@H]1CCOC[C@@H]1Nc1nc(Nc2cc3c(c(C(F)(F)F)c2)B(O)OC3)ncc1Cl (single isomer, unassigned) [Example 042a, (trans)-3-((5-chloro-2-((1-hydroxy-7-(trifluoromethyl)-1,3-dihydrobenzo[c][1,2]oxaborol-5-yl)amino)pyrimidin-4-yl)amino)tetrahydro-2H-pyran-4-carbonitrile] | 8.01 | 8.14 | <19.9 | 6.83 | 5.53 |  | 9.40 |  |  |  |
|  |  | Cc1cnc(Nc2cc3c(c(C(F)(F)F)c2)B(O)OC3)nc1N[C@H]1COC[C@@H]1C#N (single isomer, unassigned) [Example 043a, (trans)-4-[[2-[[1-hydroxy-7-(trifluoromethyl)-3H-2,1-benzoxaborol-5-yl]amino]-5-methyl-pyrimidin-4-yl]amino]tetrahydrofuran-3-carbonitrile] | 7.34 | 7.63 | <19.9 | 6.57 | 5.38 |  | 9.05 |  |  |  |
|  |  | Cc1cnc(Nc2cc(Cl)c3c(c2)COB3O)nc1N[C@H]1CCCOC1 [Example 030b, (S)-7-chloro-5-((5-methyl-4-((tetrahydro-2H-pyran-3-yl)amino)pyrimidin-2-yl)amino)benzo[c][1,2]oxaborol-1(3H)-ol] |  | 7.04 | <19.9 | 6.71 | 5.35 |  | 8.33 | 7.59 |  |  |
|  |  | N#CC1CCOCC1Nc1nc(Nc2cc(F)c3c(c2)COB3O)ncc1Cl (stereo not drawn) [Example 050, 3-((5-chloro-2-((7-fluoro-1-hydroxy-1,3-dihydrobenzo[c][1,2]oxaborol-5-yl)amino)pyrimidin-4-yl)amino)tetrahydro-2H-pyran-4-carbonitrile] | 7.62 | 8.92 | <19.9 | 7.02 | 5.68 | 6.08 | 9.70 |  |  |  |
